Assays:
Human Nav1.7 = biological target: T1, Human Nav1.7 (Homo sapiens, UniProt Q15858); test: Ionworks Barracuda (IWB) automated patch clamp assay; format: cell-based; conditions: population patch clamp, HEK cells, 4 min compound incubation at -20 mV; read-out: hNaV1.7 IWB-U IC50
T1 construct: expressed in transfected cells; host or cells: Spiking HEK cells (without Kir2.1 transfection)
Description: Ionworks Barracuda Automated Patch Clamp Assay (Same Protocol for Both Human and Mouse)
Human Nav1.7 currents were recorded in population patch-clamp mode with the IWB automated electrophysiology system (Molecular Devices, LLC, Sunnyvale, Calif.). Spiking HEK cells (without Kir2.1 transfection) were cultured and prepared for recordings as previously described for IonWorks Quattro testing^1. The external solution consisted of the following (in mM): NaCl 140, KCl 5, CaCl2 2, MgCl2 1, HEPES 10, and glucose 11, pH 7.4, with N-methyl-D-glucamine at 320 mOsmol. The internal solution consisted of the following (in mM): KCl 70, KF 70, MgCl2 0.25, HEDTA 5, and HEPES 10, pH 7.25, with Nmethyl-D-glucamine, 300 mOsmol. From a holding potential of −110 mV, currents were elicited by a train of 26 depolarizations of 150 ms duration to −20 mV at a frequency of 5 Hz. Cells were then clamped to −20 mV for a period of 4 minutes in the presence of a single concentration of test compound. Following this compound incubation period, cells were clamped to −110 mV for three seconds to recover unbound channels and put through the same 26 pulse voltage protocol as above. Peak inward current during the 26th pulse to −20 mV in the presence of compound was divided by the peak inward current evoked by the 26th pulse to −20 mV in the absence of compound to determine percent inhibition. Concentration-response curves of percent inhibition as a function of concentration were generated to calculate IC50 values as described in Kornecook, T. J.; Yin, R.; Altmann, S.; et al. Pharmacologic Characterization of AMG8379, a Potent and Selective Small Molecule Sulfonamide Antagonist of the Voltage-Gated Sodium Channel NaV1. 7. J. Pharmacol. Exp. Ther. 2017, 362, 146-160.

CYP3A4 = test: Human CYP 3A4 induction assay (mRNA, cryopreserved human hepatocytes); format: in vitro ADME; conditions: 72 hours, percent of control (POC); for CYP3A4 mRNA Induct Hu 2 uM POC: 2 uM test compound; for CYP3A4 mRNA Induct Hu 10 uM POC: 10 uM test compound
Description: Human CYP 3A4 Induction Assay
Cryopreserved human hepatocytes were seeded in 96-well collagen coated plates at 70,000 cells per well in hepatocyte plating media (HPM, final concentrations: lx Dulbecco's Modified Eagle's Medium, 0.1 μM dexamethasone, 10% fetal bovine serum, lx ITS, 1×PSG) followed by incubation at 37° C. under 5% CO2 and 90% relative humidity for 2 days to allow hepatocytes to form a confluent layer. On Day 3, hepatocytes were treated with either test compound or rifampin (20 μM, positive control for CYP3A induction) prepared in hepatocyte incubation media ((HIM, final concentrations: 1× William's Medium E, 0.1 μM dexamethasone, 1×ITS, 1×PSG). Treatment was performed for 72 hours with either 2 concentrations (2 μM or 10 μM) or a range of concentrations (0.001 μM to 100 μM) of the test compound to obtain full dose-response curve. Fresh media containing the relevant concentrations of the test compound was replaced every day until the samples were processed. After 72 hours of incubation, samples were processed for mRNA analysis using bDNA technology using manufacturer's instructions (Affymetrix, Fremont, Calif.). Cell viability was tested at the end of the experiment using MTT assay kit (Roche Diagnostics, Basel, Switzerland). Data was analyzed and presented as percent of control (POC) and Emax and EC50 obtained when appropriate according to guidance from Center for Drug Evaluation and Research (CDER), 2006, Guidance for Industry, Drug Interaction Studies—Study Design, Data Analysis, and Implications for Dosing and Labeling.
Cryopreserved human hepatocytes were seeded in 96-well collagen coated plates at 70,000 cells per well in hepatocyte plating media (HPM, final concentrations: lx Dulbecco's Modified Eagle's Medium, 0.1 μM dexamethasone, 10% fetal bovine serum, lx ITS, 1×PSG) followed by incubation at 37° C. under 5% CO2 and 90% relative humidity for 2 days to allow hepatocytes to form a confluent layer. On Day 3, hepatocytes were treated with either test compound or rifampin (20 μM, positive control for CYP3A induction) prepared in hepatocyte incubation media ((HIM, final concentrations: 1× William's Medium E, 0.1 μM dexamethasone, 1×ITS, 1×PSG). Treatment was performed for 72 hours with either 2 concentrations (2 μM or 10 μM) or a range of concentrations (0.001 μM to 100 μM) of the test compound to obtain full dose-response curve. Fresh media containing the relevant concentrations of the test compound was replaced every day until the samples were processed. After 72 hours of incubation, samples were processed for mRNA analysis using bDNA technology using manufacturer's instructions (Affymetrix, Fremont, Calif.). Cell viability was tested at the end of the experiment using MTT assay kit (Roche Diagnostics, Basel, Switzerland). Data was analyzed and presented as percent of control (POC) and Emax and EC50 obtained when appropriate, as described in Halladay, J. et al, 2012, An “all-inclusive” 96-well cytochrome P450 induction method: Measuring enzyme activity, mRNA levels, protein levels, and cytotoxicity from one well using cryopreserved human hepatocytes, Pharmacological and Toxicological Methods, 66:270-275.

T1 sequence (Q15858 whole entry): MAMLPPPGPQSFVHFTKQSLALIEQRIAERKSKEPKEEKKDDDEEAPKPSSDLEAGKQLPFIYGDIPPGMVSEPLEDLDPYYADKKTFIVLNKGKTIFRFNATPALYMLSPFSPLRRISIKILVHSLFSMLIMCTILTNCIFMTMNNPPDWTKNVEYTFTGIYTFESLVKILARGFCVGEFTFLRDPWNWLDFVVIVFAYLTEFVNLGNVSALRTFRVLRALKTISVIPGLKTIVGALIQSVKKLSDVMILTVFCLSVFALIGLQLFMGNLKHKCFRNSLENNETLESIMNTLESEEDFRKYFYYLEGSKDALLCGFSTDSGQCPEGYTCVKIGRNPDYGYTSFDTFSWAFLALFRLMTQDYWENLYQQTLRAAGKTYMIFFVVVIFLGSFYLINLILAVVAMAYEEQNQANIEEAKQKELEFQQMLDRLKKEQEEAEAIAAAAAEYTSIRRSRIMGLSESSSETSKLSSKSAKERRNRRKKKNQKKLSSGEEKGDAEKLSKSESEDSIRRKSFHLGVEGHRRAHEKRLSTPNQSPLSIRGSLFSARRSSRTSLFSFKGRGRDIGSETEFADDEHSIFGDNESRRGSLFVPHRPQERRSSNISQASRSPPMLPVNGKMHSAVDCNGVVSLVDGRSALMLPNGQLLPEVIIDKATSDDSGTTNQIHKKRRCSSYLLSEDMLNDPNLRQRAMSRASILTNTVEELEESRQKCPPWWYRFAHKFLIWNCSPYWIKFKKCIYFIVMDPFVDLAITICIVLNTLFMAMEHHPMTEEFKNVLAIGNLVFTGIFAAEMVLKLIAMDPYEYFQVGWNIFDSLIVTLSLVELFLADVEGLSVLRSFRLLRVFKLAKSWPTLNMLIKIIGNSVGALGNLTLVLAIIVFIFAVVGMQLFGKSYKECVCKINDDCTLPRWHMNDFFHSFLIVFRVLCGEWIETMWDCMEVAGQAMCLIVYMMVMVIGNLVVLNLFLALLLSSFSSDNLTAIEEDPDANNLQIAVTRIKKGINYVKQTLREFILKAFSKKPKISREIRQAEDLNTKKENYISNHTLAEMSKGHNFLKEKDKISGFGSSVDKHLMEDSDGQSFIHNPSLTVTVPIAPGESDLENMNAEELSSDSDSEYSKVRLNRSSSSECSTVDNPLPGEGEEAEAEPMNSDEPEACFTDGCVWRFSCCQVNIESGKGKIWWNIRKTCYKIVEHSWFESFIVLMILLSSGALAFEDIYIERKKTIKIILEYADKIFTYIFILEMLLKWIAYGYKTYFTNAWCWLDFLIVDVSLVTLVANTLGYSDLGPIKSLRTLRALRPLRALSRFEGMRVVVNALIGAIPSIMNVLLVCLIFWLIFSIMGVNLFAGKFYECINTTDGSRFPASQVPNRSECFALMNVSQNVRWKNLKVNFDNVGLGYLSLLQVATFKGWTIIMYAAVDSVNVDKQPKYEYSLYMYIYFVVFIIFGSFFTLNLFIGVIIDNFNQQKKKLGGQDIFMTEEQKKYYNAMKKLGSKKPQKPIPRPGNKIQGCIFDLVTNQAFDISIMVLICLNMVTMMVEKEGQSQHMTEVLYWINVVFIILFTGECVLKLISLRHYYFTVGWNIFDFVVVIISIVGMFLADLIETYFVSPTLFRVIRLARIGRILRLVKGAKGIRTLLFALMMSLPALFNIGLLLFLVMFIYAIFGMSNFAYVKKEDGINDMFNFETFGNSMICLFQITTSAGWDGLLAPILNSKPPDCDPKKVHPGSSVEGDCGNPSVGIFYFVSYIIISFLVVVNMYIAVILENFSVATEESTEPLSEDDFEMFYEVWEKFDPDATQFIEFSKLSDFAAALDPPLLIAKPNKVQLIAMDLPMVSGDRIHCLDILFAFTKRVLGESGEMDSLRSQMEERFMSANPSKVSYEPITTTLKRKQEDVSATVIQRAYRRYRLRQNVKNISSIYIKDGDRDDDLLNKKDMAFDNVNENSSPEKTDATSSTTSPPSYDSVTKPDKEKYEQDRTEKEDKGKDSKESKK

## COc1cc(O[C@@H](C)C(F)(F)F)c(F)cc1-n1c(=O)ccc2cc(S(=O)(=O)Nc3ccon3)ccc21 (atropisomer, axis not shown; (P)) [Example 18, (P)-(S)-1-(5-fluoro-2-methoxy-4-((1,1,1-trifluoropropan-2-yl)oxy)phenyl)-N-(isoxazol-3-yl)-2-oxo-1,2-dihydroquinoline-6-sulfonamide]
Human Nav1.7
  IC50: 0.027 µM
CYP3A4
  CYP3A4 mRNA Induct Hu 2 uM POC: 2.6%
  CYP3A4 mRNA Induct Hu 10 uM POC: 9.5%

## COc1cc(SC(F)(F)F)c(F)cc1-n1c(=O)ccc2cc(S(=O)(=O)Nc3ncccn3)c(F)cc21 (atropisomer, axis not shown; (P)) [Example 19, (P)-7-fluoro-1-(5-fluoro-2-methoxy-4-((trifluoromethyl)thio)phenyl)-2-oxo-N-(pyrimidin-2-yl)-1,2-dihydroquinoline-6-sulfonamide]
Human Nav1.7
  IC50: 0.029 µM
CYP3A4
  CYP3A4 mRNA Induct Hu 2 uM POC: 17.4%
  CYP3A4 mRNA Induct Hu 10 uM POC: 49.2%

## COc1cc(OCCC(F)(F)F)c(F)cc1-n1c(=O)ccc2cc(S(=O)(=O)Nc3ccon3)ccc21 (atropisomer, axis not shown; (P)) [Example 20, (P)-1-(5-fluoro-2-methoxy-4-(3,3,3-trifluoropropoxy)phenyl)-N-(isoxazol-3-yl)-2-oxo-1,2-dihydroquinoline-6-sulfonamide]
Human Nav1.7
  IC50: 0.03 µM
CYP3A4
  CYP3A4 mRNA Induct Hu 2 uM POC: 10.8%
  CYP3A4 mRNA Induct Hu 10 uM POC: 29.6%

## COc1cc(O[C@H](C)C(F)(F)F)c(F)cc1-n1c(=O)ccc2cc(S(=O)(=O)Nc3ccon3)ccc21 (atropisomer, axis not shown; (P)) [Example 21, (P)-(R)-1-(5-fluoro-2-methoxy-4-((1,1,1-trifluoropropan-2-yl)oxy)phenyl)-N-(isoxazol-3-yl)-2-oxo-1,2-dihydroquinoline-6-sulfonamide]
Human Nav1.7
  IC50: 0.032 µM
CYP3A4
  CYP3A4 mRNA Induct Hu 2 uM POC: 0.4%
  CYP3A4 mRNA Induct Hu 10 uM POC: 1.8%

## COc1cc(OCCC(F)(F)F)c(F)cc1-n1c(=O)ccc2cc(S(=O)(=O)Nc3ccon3)c(F)cc21 (atropisomer, axis not shown; (P)) [Example 22, (P)-7-fluoro-1-(5-fluoro-2-methoxy-4-(3,3,3-trifluoropropoxy)phenyl)-N-(isoxazol-3-yl)-2-oxo-1,2-dihydroquinoline-6-sulfonamide]
Human Nav1.7
  IC50: 0.034 µM
CYP3A4
  CYP3A4 mRNA Induct Hu 2 uM POC: 14.8%
  CYP3A4 mRNA Induct Hu 10 uM POC: 41.5%

## COc1cc(SC(F)(F)F)ccc1-n1c(=O)ccc2cc(S(=O)(=O)Nc3ccon3)ccc21 (atropisomer, axis not shown; (P)) [Example 23]
Human Nav1.7
  IC50: 0.039 µM
CYP3A4
  CYP3A4 mRNA Induct Hu 2 uM POC: 7.4%
  CYP3A4 mRNA Induct Hu 10 uM POC: 25.1%

## COc1cc(O[C@@H](C)C(F)(F)F)c(F)cc1-n1c(=O)ccc2cc(S(=O)(=O)Nc3ncccn3)ccc21 (atropisomer, axis not shown; (P)) [Example 24, (P)-(S)-1-(5-fluoro-2-methoxy-4-((1,1,1-trifluoropropan-2-yl)oxy)phenyl)-2-oxo-N-(pyrimidin-2-yl)-1,2-dihydroquinoline-6-sulfonamide]
Human Nav1.7
  IC50: 0.068 µM
CYP3A4
  CYP3A4 mRNA Induct Hu 2 uM POC: 0.8%
  CYP3A4 mRNA Induct Hu 10 uM POC: 1.2%

## COc1cc(OCC(F)(F)F)c(F)cc1-n1c(=O)c(F)cc2cc(S(=O)(=O)Nc3ccon3)ccc21 (atropisomer, axis not shown; (P)) [Example 25, (P)-3-fluoro-1-(5-fluoro-2-methoxy-4-(2,2,2-trifluoroethoxy)phenyl)-N-(isoxazol-3-yl)-2-oxo-1,2-dihydroquinoline-6-sulfonamide]
Human Nav1.7
  IC50: 0.102 µM
CYP3A4
  CYP3A4 mRNA Induct Hu 2 uM POC: 11.5%
  CYP3A4 mRNA Induct Hu 10 uM POC: 38.0%

## COc1nc(SC(F)(F)F)c(F)cc1-n1c(=O)ccc2cc(S(=O)(=O)Nc3ccon3)ccc21 (atropisomer, axis not shown; (P)) [Example 26, (P)-1-(5-fluoro-2-methoxy-6-((trifluoromethyl)thio)pyridin-3-yl)-N-(isoxazol-3-yl)-2-oxo-1,2-dihydroquinoline-6-sulfonamide]
Human Nav1.7
  IC50: 0.185 µM
CYP3A4
  CYP3A4 mRNA Induct Hu 2 uM POC: 5.7%
  CYP3A4 mRNA Induct Hu 10 uM POC: 25.6%

## COc1cc(SC(F)(F)F)c(F)cc1-n1c(=O)cc(F)c2cc(S(=O)(=O)Nc3ccon3)ccc21 [Example 11, P-4-fluoro-1-(5-fluoro-2-methoxy-4-((trifluoromethyl)thio)phenyl)-N-(isoxazol-3-yl)-2-oxo-1,2-dihydroquinoline-6-sulfonamide]
Human Nav1.7
  IC50: 0.01 µM
CYP3A4
  CYP3A4 mRNA Induct Hu 2 uM POC: 7.3%
  CYP3A4 mRNA Induct Hu 10 uM POC: 48.1%

## COc1cc(SC(F)(F)F)c(C)cc1-n1c(=O)ccc2cc(S(=O)(=O)Nc3ccon3)ccc21 [Example 12, P-N-(isoxazol-3-yl)-1-(2-methoxy-5-methyl-4-((trifluoromethyl)thio)phenyl)-2-oxo-1,2-dihydroquinoline-6-sulfonamide]
Human Nav1.7
  IC50: 0.014 µM
CYP3A4
  CYP3A4 mRNA Induct Hu 2 uM POC: 20.2%
  CYP3A4 mRNA Induct Hu 10 uM POC: 61.2%

## COc1cc(O[C@H](C)C(F)(F)F)c(F)cc1-n1c(=O)ccc2cc(S(=O)(=O)Nc3ncccn3)ccc21 [Example 13, P-(R)-1-(5-fluoro-2-methoxy-4-((1,1,1-trifluoropropan-2-yl)oxy)phenyl)-2-oxo-N-(pyrimidin-2-yl)-1,2-dihydroquinoline-6-sulfonamide]
Human Nav1.7
  IC50: 0.021 µM
CYP3A4
  CYP3A4 mRNA Induct Hu 2 uM POC: 7.0%
  CYP3A4 mRNA Induct Hu 10 uM POC: 35.3%

## COc1cc(OCC(F)(F)F)c(F)cc1-n1c(=O)ccc2cc(S(=O)(=O)Nc3ccon3)c(F)cc21 [Example 14]
Human Nav1.7
  IC50: 0.023 µM
CYP3A4
  CYP3A4 mRNA Induct Hu 2 uM POC: 3.6%
  CYP3A4 mRNA Induct Hu 10 uM POC: 21.4%
